These results are taken from patent US20170260285A1, “METHODS FOR TREATING CANCER” (UNIVERSITY OF IOWA RESEARCH FOUNDATION, priority 2014, published 2017).

Entries after “also recorded” stand apart in the source; their conditions may differ. Read-outs that look alike come from different tables or passages of the source. Residues, ends and D or L forms follow the SMILES beside them. *: point of attachment. Cbz = O=C(OCc1ccccc1)*; CH2F = FC*

One series deals with HNSCC tumor cell lines. The conditions noted are these: previous studies (ref. 10), cited from earlier work.
The next series has as its system Cal-27 cells. The experiment in a line: TLR gene expression by RTPCR in Cal-27 cells. It counts as cell-based, human.
In series [1] the test system is SQ20B HNSCC cells. The experiment in a line: IL-1α release by ELISA in SQ20B cells. It counts as cell-based, human. As to conditions: for IL-1α after erlotinib treatment over time: erlotinib 5 μM, indicated time points, ELISA; for baseline IL-1α levels: agent 1 h then DMSO 48 h; for erlotinib-induced IL-1α release: agent 1 h then erlotinib 5 μM 48 h. The procedure: (§1) Erlotinib (ERL; Tarceva) and anakinra (ANA; Kineret) were obtained from the inpatient pharmacy at the University of Iowa Hospitals and Clinics. Drugs were added to cells at final concentrations of 5 μM ERL and 10 ng/mL or 50 ng/mL ANA. Human IgG and […] (DMSO) were used as controls and were obtained from Sigma Aldrich. Human IL-1α, IL-1β, and IL-18Rα neutralizing antibodies were obtained from R&D Systems and were used at a concentration of 0.5 μg/mL. Recombinant human IL-1α was obtained from Life Technologies and administered at a concentration of 1 ng/mL. Ac-Y-VAD-cho, a caspase-1 inhibitor (CalBioChem), was suspended in DMSO and added at a concentration of […], a pan-caspase inhibitor (Promega) was diluted in DMSO and added at a concentration of 20 μM. TLR agonists were used at the following concentrations: Pam3CSK4 (200ng/mL), FSL-1 (100 ng/mL), Poly I:C (20 μg/mL), LPS (200 ng/mL), Flagellin (200 ng/mL), Gardiquimod (1 μg/mL), CL075 (1 μg/mL), and E. coli DNA (1 μg/mL). All TLR agonists were obtained from InvivoGen. The required volume of each drug was added directly to complete cell culture media on cells to achieve the indicated final concentrations.
(§2) Levels of IL-6, IL-1α and IL-1β of treated cells were determined by ELISA. The culture media of the treated cells were harvested and each cytokine was detected according to the manufacturer's protocol using the Human Quantikine ELISA Kits (R&D Systems, Minneapolis, Minn.).
(§3) Erlotinib (ERL; Tarceva), anakinra (ANA; Kineret) and N-acetyl cysteine (NAC; Acetadote) were obtained from the inpatient pharmacy at the University of Iowa Hospitals and Clinics. Drugs were added to cells at final concentrations of 5 μM ERL, 10 ng/mL or 50 ng/mL ANA and 20 mM NAC. Human IgG and […] (DMSO) were used as controls and were obtained from Sigma Aldrich. Pegylated catalase (CAT; Sigma Aldrich) was used at a final concentration of 100 U/mL. Human IL-1α, IL-1β, and IL-18Ra neutralizing antibodies were obtained from R&D Systems and were used at a concentration of 0.5 μg/mL. Recombinant human IL-1α was obtained from Life Technologies and administered at a concentration of 1 ng/mL. Ac-Y-VAD-cho (CalBioChem) was suspended in DMSO and used at 5 μM. Z-VAD-fmk (Promega) was diluted in DMSO and used at 20 μM. TLR agonists were used at the following concentrations: Pam3CSK4 (200 ng/mL), FSL-1 (100 ng/mL), Poly I:C (20 μg/mL), LPS (200 ng/mL), Flagellin (200 ng/mL), Gardiquimod (1 μg/mL), CL075 (1 μg/mL), and E. coli DNA (1 μg/mL). All TLR agonists were obtained from InvivoGen. The required volume of each drug was added directly to complete cell culture media on cells to achieve the indicated final concentrations.
(§4) Levels of IL-6, IL-1α and IL-1β of treated cells were determined by ELISA. The culture media of the treated cells were harvested and each cytokine was detected according to the manufacturer's protocol using Human Quantikine ELISA Kits (R&D Systems, Minneapolis, Minn.).

The subject of series [2] is SQ20B cells. The experiment in a line: TLR gene expression by RTPCR in SQ20B cells. Format: cell-based, human.
Procedure: Total RNA was extracted from cells after indicated time points using RNeasy.Plus mini kit (Qiagen). Conversion of RNA into cDNA was accomplished with the iScript cDNA synthesis kit (Bio-Rad) and a thermocycler with the following conditions: 5 minutes at 25° C., 30 minutes at 42° C., and 5 minutes at 85° C. Subsequent RTPCR analysis was performed in a 96-well optical plate with each well containing 6 μL of cDNA, 7.5 μL of SyBr Green Universal SuperMix (Bio-Rad), and 1.5 μof oligonucleotide primers (sense and antisense; 4 μM) for a total reaction volume of 15 μL. Oligonucleotide primers for human genes were obtained from IDT (Iowa City, Iowa). RTPCR was performed on ABI PRISM Sequence Detection System (model 7000, Applied Biosystems) with the following protocol: 95° C. for 15 seconds (denaturing) and 60° C. for 60 seconds (annealing), repeated for 40 cycles. Threshold cycle (CT) values for analyzed genes (in duplicate) were normalized as compared to GAPDH (cell lines) or 18S (human samples) CT values. Relative abundance was calculated as 0.5̂(ΔCT), with OCT being the CT value of the analyzed gene minus the CT value of the reference gene (GAPDH or 18S).
For series [3], the system named is SQ20B and Cal-27 HNSCC cells. The experiment in a line: IL-1β secretion by ELISA after erlotinib. It counts as cell-based, human. The conditions noted are these: erlotinib 5 μM, any time point. The procedure:
as §1, with “TLR agonists were used at the following concentrations: Pam3CSK4 (200ng/mL), FSL-1 (100 ng/mL), Poly I:C (20 μg/mL), LPS (200 ng/mL), Flagellin (200 ng/mL), Gardiquimod (1 μg/mL), CL075 (1 μg/mL), and E. coli DNA (1 μg/mL). All TLR agonists were obtained from InvivoGen. The required volume of each drug was added directly to complete cell culture media on cells to achieve the indicated final concentrations.” left out
Levels of IL-6, IL-1α and IL-1β of treated cells were determined by ELISA. The culture media of the treated cells were harvested and each cytokine was detected according to the manufacturer's protocol using the Human Quantikine ELISA Kits (R&D Systems, Minneapolis, Minn.). […]
as §4
(ELISA stands for enzyme-linked immunosorbent assay.)

In series [4] the test system is SQ20B HNSCC cells. The experiment in a line: IL-6 secretion by ELISA in SQ20B cells. It counts as cell-based, human. The conditions noted are these: erlotinib 5 μM, 48 h vs DMSO, ELISA.
Source text: (§5) Cal-27 and FaDu human head and neck squamous carcinoma (HNSCC) cells were obtained from the American Type Culture Collection (ATCC, Manassas, Va.). SQ20B HNSCC cells (16) were a gift from Dr. Anjali Gupta (Department of Radiation Oncology, The University of Iowa). All HNSCC cell lines are EGFR positive and are sensitive to EGFR inhibitors. All cell lines were authenticated by the ATCC for viability (before freezing and after thawing), growth, morphology and isoenzymology. Cells were stored according to the supplier's instructions and used over a course of no more than 3 months after resuscitation of frozen aliquots. Cultures were maintained in 5% CO2 and air humidified in a 37° C. incubator.
as §1, §2
as §5, with “(20)” for “(16)”
as §3, with “The required volume of each drug was added directly to complete cell culture media on cells to achieve the indicated final concentrations.” left out

A further series concerns SQ20B xenograft tumors. The experiment in a line: HNSCC xenograft tumor growth in nude mice. Format: in vivo, athymic nu/nu mice.
For series [5], the system named is Cal-27 HNSCC cells. The experiment in a line: IL-6 secretion by ELISA in Cal-27 cells. It counts as cell-based, human. The conditions noted are these: erlotinib 5 μM, 48 h vs DMSO, ELISA.
Source text: as §5, §1, §2
as §5, with “(20)” for “(16)”
as §3, with “The required volume of each drug was added directly to complete cell culture media on cells to achieve the indicated final concentrations.” left out

The test system of series [6] is Cal-27 HNSCC cells. The experiment in a line: IL-1α release by ELISA in Cal-27 cells. It counts as cell-based, human. As to conditions: for IL-1α after erlotinib treatment over time: erlotinib 5 μM, indicated time points, ELISA; for baseline IL-1α levels: agent 1 h then DMSO 48 h; for erlotinib-induced IL-1α release: agent 1 h then erlotinib 5 μM 48 h. The procedure: as §1, §2, §3, §4

For series [7], the system named is SQ20B cells. The experiment in a line: Clonogenic survival assay. As to conditions: Z-VAD 20 μM with erlotinib. Format: cell-based, human. The procedure: Clonogenic survival was determined as previously described (17). Individual assays were performed with multiple dilutions with at least four cloning dishes per data point, repeated in at least 3 separate experiments. Tumor cell implantation: Female 4-5 week old athymic-nu/nu nude mice were purchased from Harlan Laboratories (Indianapolis, IN). Mice were housed in a pathogen-free barrier room in the Animal Care Facility at the University of Iowa and handled using aseptic procedures. All procedures were approved by the IACUC committee of the University of Iowa and conformed to the guidelines established by the NIH. Mice were allowed at least 3 days to acclimate prior to beginning experimentation, and food and water were made freely available. Tumor cells (shCON or shMyD88) were inoculated into nude mice by subcutaneous injection of 0.1 mL aliquots of saline containing 2×10^6 FaDu cells into the right flank using 26-gauge needles.
Clonogenic survival was determined as previously described (22). Individual assays were performed with multiple dilutions with at least four cloning dishes per data point, repeated in at least 3 separate experiments.

Another series deals with SQ20B and Cal27 cells. Format: cell-based. The procedure: To determine whether cell death is responsible for IL-1α release, we used Z-VAD-fmk, a pan-caspase inhibitor, to prevent cell death. We also tested Ac-Y-VAD-cho, caspase-1 inhibitor, to assess inflammasome involvement. After testing various combinations of these inhibitors, we found an optimal concentration of 20 μM Z-VAD and 5μM Y-VAD. […] To confirm that the pan-caspase inhibitor was effectively blocking cell death, we performed a clonogenic assay with erlotinib- and Z-VAD-treated cells in SQ20B cells.

Series [8] deals with genes related to inflammation and innate immunity. As to conditions: one other study (ref. 25); cited from earlier work.
Where [9] appears, read: ERL 5 μM 48 h, absolute levels very low.
Setting [10] is: listed as pan-caspase inhibitor.

Source text for SQ20B xenograft tumors: Male and female athymic-nu/nu mice (4-5 weeks old) were purchased from Harlan Laboratories (Indianapolis, Ind.). Mice were housed in a pathogen-free barrier room in the Animal Care Facility at the University of Iowa and handled using aseptic procedures. All procedures were approved by the IACUC committee of the University of Iowa and conformed to the guidelines established by the NIH. Mice were allowed at least 3 days to acclimate prior to beginning experimentation, and food and water were made freely available. Tumor cells were inoculated into nude mice by subcutaneous injection of 0.1 mL aliquots of saline containing 2×10^6 SQ20B cells into the right flank using 26-gauge needles.
Mice started drug treatment 1 week after tumor inoculation. For the MyD88 knockdown experiments, female mice were randomized into 2 treatment groups and orally administered either water or 12.5 mg/kg erlotinib (ERL) daily. For the IL-1α neutralization experiments, male and female mice were randomized into 4 treatment groups as follows. Control group: Mice were administered water orally daily and 1 mg/kg IgG i.p once per week. […] Mice were evaluated daily and tumor measurements taken three times per week using Vernier calipers. Tumor volumes were calculated using the formula: tumor volume=(length×width^2)/2 where the length was the longest dimension, and width was the dimension perpendicular to length. […]

In the case of `C#Cc1cccc(Nc2ncnc3cc(OCCOC)c(OCCOC)cc23)c1` [erlotinib, Erlotinib], the “IL-6 expression/secretion in HNSCC cell lines treated with EGFRIs” value in the series on HNSCC tumor cell lines is given as “significant upregulation”; in the series on HNSCC tumor cell lines (listed as ERL), “induces the secretion of IL-6”. Besides, the TLR10 expression entry in the series with Cal-27 cells (setting [9]) is given as “increased”. The “TLR mRNA expression” value in the series on Cal-27 cells (erlotinib) and in the series on SQ20B cells [2] (erlotinib) was “did not affect” in each case. The “IL-1α after erlotinib treatment over time” value with SQ20B HNSCC cells [1] is listed as “steadily increased across all time points”; in the series on SQ20B HNSCC cells [1] (listed as ERL), “increased across all time points”; in the series on Cal-27 HNSCC cells [6], “steadily increased across all time points”; in the series on Cal-27 HNSCC cells [6] (listed as ERL), “increased across all time points”. Moreover, the TLR8 expression entry in the series on SQ20B cells [2] (setting [9]) is listed as “increased”. Also, the entries for the “secreted IL-1β after erlotinib treatment” value in series [3] and in series [3] (listed as ERL) were “undetectable; also recorded: unable to detect” and “not IL-1β was detectable”, respectively. Also, the “IL-6 production/secretion with erlotinib” value in the series on SQ20B HNSCC cells [4] and in the series on Cal-27 HNSCC cells [5] was “increases IL-6 production” in each case. The “anti-tumor activity in vivo with IL-1α blockade” value with SQ20B xenograft tumors (EGFRI combined with IL-1α blockade (neutralizing IL-1α antibody)) is “significantly increased”. Also, the “tumor growth of MyD88-deficient xenografts treated with erlotinib” value in the series with SQ20B xenograft tumors (shMyD88 #2 and #9 vs erlotinib-treated control xenografts, 12.5 mg/kg orally daily, three weeks) is recorded as “reduced tumor growth”.

Turning to `COC(=O)C[C@H](NC(=O)[C@H](C)NC(=O)[C@@H](NC(=O)OCc1ccccc1)C(C)C)C(=O)CF` [Z-VAD-fmk] (Cbz-Val-Ala-Asp(OMe)-CH2F), the erlotinib-induced cell death result in the series with SQ20B cells [7] is reported as “blocked”; with SQ20B cells [7] (listed as Z-VAD) it was “significantly blocked”; in the series with SQ20B cells [7] (listed as ZVAD) it was “blocked”; in the series on SQ20B cells [7] (setting [10]), “blocked”. In addition, the “highest dose that did not result in toxicity (optimal concentration)” value in the series with SQ20B and Cal27 cells turned out to be 20 µM. In addition, the “baseline IL-1α levels” value in the series on SQ20B HNSCC cells [1] was “significantly reduced”; with SQ20B HNSCC cells [1] (listed as Z-VAD) it was “significantly reduce”; with Cal-27 HNSCC cells [6], “significantly reduced”; in the series with Cal-27 HNSCC cells [6] (listed as Z-VAD), “significantly reduce”. In addition, the “erlotinib-induced IL-1α release” value with SQ20B HNSCC cells [1] is “significantly reduced”; in the series on SQ20B HNSCC cells [1] (listed as Z-VAD), “significantly reduce”; in the series with SQ20B HNSCC cells [1] (listed as ZVAD), “blocked”; in the series with SQ20B HNSCC cells [1] (setting [10]), “blocked”; in the series on Cal-27 HNSCC cells [6], “significantly reduced”; with Cal-27 HNSCC cells [6] (listed as Z-VAD), “significantly reduce”. In addition, the “erlotinib-induced IL-1α release” value in the series with Cal-27 HNSCC cells [6] (listed as ZVAD) and in the series on Cal-27 HNSCC cells [6] (setting [10]) was “blocked” throughout.

For the molecule `COc1cc2ncnc(Nc3cccc(Br)c3)c2cc1OC` [PD153035], the “genes related to inflammation and innate immunity” value in [8] is on record as “upregulated”.
